Consider 14 compounds from PMC7736581, “Activation of the IRE1 RNase through remodeling of the kinase front pocket by ATP-competitive ligands” (Nature Communications, 2020).

Where two headings read alike, the source gives them in different places.

By EC50 is commonly meant the concentration that produces a half-maximal response. A word on the Kd: it is the constant that tells how readily two partners part at equilibrium. A high value points to weaker binding. As usually defined, the stoichiometry N is a count of units in the complex or per binding partner.

Assay [1] has as its system T1, IRE1 (endogenous, KMS-11).
T1 construct: endogenous full-length in KMS-11 cells
The assay can be described thus: cells. Also on record: XBP1s mRNA by branched DNA assay in KMS-11 cell lysates after compound treatment. To be noted: Homo sapiens, KMS-11, 4 h. As for the experimental part:
15-20k KMS-11 cells in RPMI growth media were seeded into 96-well plates and treated with compounds or DMSO control over a period of 4 h the following day. RNA levels of XBP1s and DGAT2 in KMS-11 cell lysates were measured using the QuantiGene 2.0 bDNA assay technology (Thermofisher). See Supplementary Table 4 for sequences of relevant capture probes. Data analysis was carried out against an assay background control with no cell lysate (no-RNA control). In the case of AMG-18, cells were also stimulated with thapsigargin (Tg, 100 nM) 30 min after compound addition. No Tg was used when treating cells with all other compounds. Samples were run in duplicate. To investigate whether this peculiar conformation had any role in the mechanism of activation of G-1749, we evaluated different tails to substitute the ethyl carbamate on the naphthyl moiety (Fig. 3, Supplementary Table 2). […] This is likely due to clashes with residues lining the front pocket, which in turn would force the tails to occupy the back pocket and break the salt bridge, thereby causing RNase inhibition. […] Experiments in KMS-11 cells (Fig. 3b, c, right panels) confirmed the effect of these tail modifications on IRE1 RNase activation. […] The chemical substituents tolerated by the front pocket seem to be very limited: even a minor substitution of the carbamate oxygen atom to a larger [compound left out], from ethyl carbamate to propyl amide (compound 6), or from methyl carbamate to methyl or ethyl amide (compound 4 or 5, respectively), or increasing the tail length by one atom, from ethyl to propyl carbamate (compound 11), is enough to impart a switch from activation to inhibition (Fig. 3b, c). […] RNA cleavage was measured by a kinetic fluorescence assay using an XBP1-like RNA hairpin substrate and IRE1 LKR construct (Q470-L977). Background from the no-protein control was subtracted from signal before calculating fold change. Source data are provided as a Source Data file. Data are presented as the mean for measurements from two independent experiments (n = 2). c RNA levels for IRE1 RNase product XBP1s measured by bDNA assay of lysates from KMS-11 cells treated with compounds for 4 h. Background from the no-RNA control was subtracted from signal before calculating fold change. Source data are provided as a Source Data file. Data are presented as the mean for measurements from two independent experiments (n = 2). d, e Analytical Ultracentrifugation sedimentation velocity (SV-AUC) experiments for (d), IRE1 LKR (Q470-L977) unphosphorylated and autophosphorylated and (e), IRE1 LKR unphosphorylated in the presence of slight excess G-9807 and G-1749. Calculated sedimentation coefficients for IRE1 monomer (3.1 svedbergs) and dimer (4.6 svedbergs) are highlighted by dotted lines. Source data are provided as a Source Data file.

The target of assay [2] is Inositol-Requiring Enzyme 1 (IRE1) (Homo sapiens, UniProt O75460). Nature of the assay: biochemical. Also on record: gene ERN1; IRE1 cytoplasmic kinase-RNase construct; kinetic fluorescence RNA cleavage (FAM/BHQ XBP1 stem-loop) by IRE1 LKR Q470-L977. As for the experimental part:
A 5′-Carboxyfluorescein (FAM)-and 3′-Black Hole Quencher (BHQ)-labeled single stem-loop mini-substrate containing XBP1 sequence (sequence reported in Supplementary Table 4) was used as substrate for cleavage by IRE1 LKR (Q470-L977) or IRE1 KR (G547-L977) in 20 mM HEPES pH 7.5, 50 mM potassium acetate, 1 mM magnesium acetate, 1 mM dithiothreitol, 0.05% v/v TritonX-100. Concentrations were as follows: 8 nM IRE1 LKR and 200 nM RNA substrate; 22 nM IRE1 KR-0P and 200 nM RNA substrate; 2 nM IRE1 KR 3P and 500 nM RNA substrate. RNA cleavage was measured kinetically over an hour at room temperature as an increase in fluorescence. The final reaction was carried out in 20 µL in 384-well plates. Samples were run in duplicate. To investigate whether this peculiar conformation had any role in the mechanism of activation of G-1749, we evaluated different tails to substitute the ethyl carbamate on the naphthyl moiety (Fig. 3, Supplementary Table 2). […] This is likely due to clashes with residues lining the front pocket, which in turn would force the tails to occupy the back pocket and break the salt bridge, thereby causing RNase inhibition. […] Experiments in KMS-11 cells (Fig. 3b, c, right panels) confirmed the effect of these tail modifications on IRE1 RNase activation. […] The chemical substituents tolerated by the front pocket seem to be very limited: even a minor substitution of the carbamate oxygen atom to a larger [compound left out], from ethyl carbamate to propyl amide (compound 6), or from methyl carbamate to methyl or ethyl amide (compound 4 or 5, respectively), or increasing the tail length by one atom, from ethyl to propyl carbamate (compound 11), is enough to impart a switch from activation to inhibition (Fig. 3b, c). […] RNA cleavage was measured by a kinetic fluorescence assay using an XBP1-like RNA hairpin substrate and IRE1 LKR construct (Q470-L977). Background from the no-protein control was subtracted from signal before calculating fold change. Source data are provided as a Source Data file. Data are presented as the mean for measurements from two independent experiments (n = 2). c RNA levels for IRE1 RNase product XBP1s measured by bDNA assay of lysates from KMS-11 cells treated with compounds for 4 h. Background from the no-RNA control was subtracted from signal before calculating fold change. Source data are provided as a Source Data file. Data are presented as the mean for measurements from two independent experiments (n = 2). d, e Analytical Ultracentrifugation sedimentation velocity (SV-AUC) experiments for (d), IRE1 LKR (Q470-L977) unphosphorylated and autophosphorylated and (e), IRE1 LKR unphosphorylated in the presence of slight excess G-9807 and G-1749. Calculated sedimentation coefficients for IRE1 monomer (3.1 svedbergs) and dimer (4.6 svedbergs) are highlighted by dotted lines. Source data are provided as a Source Data file.

For assay [3], the target named is IRE1 LKR (Q470-L977), autophosphorylated (human) (UniProt O75460). Nature of the assay: AUC; sedimentation velocity; IRE1 LKR at 3.3, 10 and 30 µM without compound; 25 mM HEPES pH 7.5, 250 mM NaCl, 1 mM TCEP; 20 °C, 45,000 rpm, A280; fit to a monomer-dimer equilibrium model (Sedanal); monomer to dimer.
Assay [4] concerns the target IRE1 LKR (Q470-L977), unphosphorylated (human) (UniProt O75460). Nature of the assay: AUC; sedimentation velocity; unphosphorylated IRE1 LKR at 3.3, 10 and 30 µM with a slight (ca. 15% molar) excess of G-9807 (4, 12, 35 µM); 25 mM HEPES pH 7.5, 250 mM NaCl, 1 mM TCEP; 20 °C; fit to a monomer-dimer equilibrium model; monomer to dimer.
The mark [5] stands for this setting: XBP1s mRNA increase, read-out: EC50 (KMS-11 bDNA assay, XBP1s), activators.
Setting [6] is: RNase activation, read-out: EC50 (RNase biochemical assay), activators.
Where [7] appears, read: XBP1s mRNA decrease, read-out: EC50 (KMS-11 bDNA assay, XBP1s), inhibitors.
Where [8] appears, read: RNase inhibition, read-out: EC50 (RNase biochemical assay), inhibitors.
Setting [9] is: RNase inhibition, inhibitor, read-out: EC50 (RNase biochemical assay), inhibitors.

Sequence of Inositol-Requiring Enzyme 1 (IRE1) (O75460 547-977): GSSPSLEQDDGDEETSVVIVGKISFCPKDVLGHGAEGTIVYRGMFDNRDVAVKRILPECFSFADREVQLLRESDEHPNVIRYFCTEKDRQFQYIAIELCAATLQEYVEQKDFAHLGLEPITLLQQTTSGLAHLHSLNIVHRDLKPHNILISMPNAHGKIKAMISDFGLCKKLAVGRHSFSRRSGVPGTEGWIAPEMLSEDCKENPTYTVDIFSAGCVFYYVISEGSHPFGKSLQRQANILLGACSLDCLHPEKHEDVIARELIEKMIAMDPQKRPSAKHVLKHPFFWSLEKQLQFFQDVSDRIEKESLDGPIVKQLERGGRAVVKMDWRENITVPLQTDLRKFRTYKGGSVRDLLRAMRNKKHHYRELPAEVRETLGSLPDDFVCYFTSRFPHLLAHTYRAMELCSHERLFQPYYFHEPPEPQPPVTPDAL

Regarding `COC(=O)Nc1cccc2c(Oc3ncccc3-c3ccnc(N[C@H]4CCCNC4)n3)c(C)ccc12` [compound 2], the EC50 in assay [1] (setting [5]) was 3370 ± 709 nM; in assay [2] (setting [6]), 4 ± 4 nM.
Consider `CCCOC(=O)Nc1cccc2c(Oc3ncccc3-c3ccnc(N[C@H]4CCCNC4)n3)c(C)ccc12` [compound 11], for which the EC50 in assay [1] (setting [7]) was determined as 234 ± 78 nM; in assay [2] (setting [8]), 29 ± 6 nM.
Take `Cc1ccc2c(NC(=O)C#CC(C)(C)C)cccc2c1Oc1ncccc1-c1ccnc(N[C@H]2CCCNC2)n1` [compound 10, 10]: the concentration giving a half-maximal response (EC50) in assay [1] (setting [7]) was 380 ± 109 nM; in assay [2] (setting [9]), 35 ± 5 nM.
With `C/C=C/C(=O)Nc1cccc2c(Oc3ncccc3-c3ccnc(N[C@H]4CCCNC4)n3)c(C)ccc12` [compound 1], the values for the concentration for a half-maximal effect (EC50) in assay [1] (setting [5]) and in assay [2] (setting [6]) were 331 ± 128 nM and 7 ± 1 nM, respectively.
Consider `CCC(=O)Nc1cccc2c(Oc3ncccc3-c3ccnc(N[C@H]4CCCNC4)n3)c(C)ccc12` [compound 5], for which the EC50 in assay [1] (setting [7]) came to 816 ± 346 nM; in assay [2] (setting [8]) it was 28 ± 5 nM.
For `CCCC(=O)Nc1cccc2c(Oc3ncccc3-c3ccnc(N[C@H]4CCCNC4)n3)c(C)ccc12` [compound 6], the concentration giving a half-maximal response (EC50) came out at 221 ± 52 nM in assay [1] (setting [7]) and 22 ± 35 nM in assay [2] (setting [8]).
Consider `Cc1ccc2c(N)cccc2c1Oc1ncccc1-c1ccnc(N[C@H]2CCCNC2)n1` [compound 3, 3], for which the half-maximal effective concentration (EC50) in assay [1] (setting [5]) turned out to be 3260 ± 480 nM; in assay [2] (RNase activation, activator, read-out: EC50 (RNase biochemical assay), activators), 31 ± 23 nM.
On to `Cc1ccc2c(NC(=O)OCC(C)(C)C)cccc2c1Oc1ncccc1-c1ccnc(N[C@H]2CCCNC2)n1` [compound 9, 9], for which the figures for the EC50 in assay [1] (setting [7]) and in assay [2] (setting [9]) were 1050 ± 372 nM and 68 ± 21 nM, respectively.
In assay [3], “IRE1 LKR (Q470-L977), autophosphorylated (from UniProt O75460 470-977) (domain or fragment)” gave a Kd of 67000 nM and a stoichiometry N of 2.
“IRE1 LKR (Q470-L977), unphosphorylated (from UniProt O75460 470-977) (domain or fragment)” yielded a stoichiometry N in assay [4] of 2.
Consider `CC(=O)Nc1cccc2c(Oc3ncccc3-c3ccnc(N[C@H]4CCCNC4)n3)c(C)ccc12` [compound 4], for which the 50% effective concentration (EC50) in assay [1] (setting [7]) was found to be 649 ± 241 nM; in assay [2] (setting [8]), 8 ± 2 nM.
`Cc1ccc2c(NC(=O)C#CCC(C)(C)C)cccc2c1Oc1ncccc1-c1ccnc(N[C@H]2CCCNC2)n1` [compound 12, 12]: the concentration giving a half-maximal response (EC50) in assay [1] (setting [7]) worked out at 645 ± 111 nM; in assay [2] (setting [9]), 52 ± 12 nM.
The like results for `Cc1ccc2c(NC(=O)OCC(C)C)cccc2c1Oc1ncccc1-c1ccnc(N[C@H]2CCCNC2)n1` [compound 8, 8] were, in that order, 465 ± 154 nM and 18 ± 3 nM.
For the compound `Cc1ccc2c(NC(=O)OC(C)C)cccc2c1Oc1ncccc1-c1ccnc(N[C@H]2CCCNC2)n1` [compound 7, 7], the results for the half-maximal effective concentration (EC50) in assay [1] (setting [7]) and in assay [2] (setting [9]) were 456 ± 226 nM and 36 ± 5 nM, respectively.
